For 25 compounds, T/C results are on record in PubChem BioAssay AID206 (DTP/NCI, 2004).

The assay concerns nude mice, HT29 intrarenal xenograft, tumor weight T/C. Kind of assay: NCI In Vivo Anticancer Drug Screen. Data for tumor model HT29;CX-1 Human Adenocarcinoma (MER+) (intrarenal inoculation) in NU/NU Swiss (nude) mice. The settings on record: endpoint: mean tumor weight change, higher = larger tumour. A digest of the protocol: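 Compounds were given to mice carrying transplantable tumors; a vehicle-dosed group served as control. The endpoint measured in each group was compared as a T/C quotient.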

Setting [1] is: dose: 25.0 mg/kg/injection, schedule: Q04DX004 (sc), vehicle: saline with Tween-80.
[2] abbreviates: dose: 50.0 mg/kg/injection, schedule: Q04DX004 (sc), vehicle: saline with Tween-80.
Where [3] appears, read: dose: 50.0 mg/kg/injection, schedule: Q01DX010 (sc), vehicle: saline.
The mark [4] stands for this setting: dose: 100.0 mg/kg/injection, schedule: Q01DX010 (sc), vehicle: saline.
The mark [5] stands for this setting: dose: 300.0 mg/kg/injection, schedule: Q04DX004 (sc), vehicle: saline.
Where [6] appears, read: dose: 600.0 mg/kg/injection, schedule: Q04DX004 (sc), vehicle: saline.
Setting [7] is: dose: 1200.0 mg/kg/injection, schedule: Q04DX004 (sc), vehicle: saline.
Where [8] appears, read: dose: 150.0 mg/kg/injection, schedule: Q04DX004 (sc), vehicle: saline.
Where [9] appears, read: dose: 37.5 mg/kg/injection, schedule: Q04DX004 (sc), vehicle: saline with Tween-80.
Where [10] appears, read: dose: 75.0 mg/kg/injection, schedule: Q04DX004 (sc), vehicle: saline with Tween-80.
The mark [11] stands for this setting: dose: 150.0 mg/kg/injection, schedule: Q04DX004 (sc), vehicle: saline with Tween-80.
The mark [12] stands for this setting: dose: 300.0 mg/kg/injection, schedule: Q04DX004 (sc), vehicle: saline with Tween-80.
The mark [13] stands for this setting: dose: 1200.0 mg/kg/injection, schedule: Q04DX004 (sc), vehicle: saline with Tween-80.

Where “and” joins values, the source holds several entries; their conditions need not be identical. Equal entries are not always repeated. Inconclusive results are not listed.

With `COc1cccc2c1C(=O)c1c(O)c3c(c(O)c1C2=O)C[C@@](O)(C(C)=O)C[C@@H]3OC1CC(N(C)C)C(O)C(C)O1` (stereo partly drawn), the T/C is, setting by setting: (dose: 2.5 mg/kg/injection, schedule: Q04DX004 (sc), vehicle: water) 69 % of control; (dose: 4.0 mg/kg/injection, schedule: Q01DX010 (sc), vehicle: saline) 54 % of control; (dose: 5.0 mg/kg/injection, schedule: Q04DX004 (sc), vehicle: water) 45 % of control; (dose: 10.0 mg/kg/injection, schedule: Q04DX004 (sc), vehicle: water) 97 % of control.

On to `Cc1cc(NCCCCCCCNc2cc(C)nc3cc(N)ccc23)c2ccc(N)cc2n1`, for which the T/C (dose: 12.5 mg/kg/injection, schedule: Q04DX004 (sc), vehicle: saline with Tween-80) is 32 % of control; the T/C under setting [1] is 56 % of control; the T/C under setting [2] is 51 % of control.

On to `C[N+](C)(C)c1ncnc2c1ncn2C1CCCO1` (stereo not drawn), for which the T/C by setting is: (dose: 6.25 mg/kg/injection, schedule: Q01DX010 (sc), vehicle: saline) 80 % of control; (dose: 12.5 mg/kg/injection, schedule: Q01DX010 (sc), vehicle: saline) 120 % of control; (dose: 25.0 mg/kg/injection, schedule: Q01DX010 (sc), vehicle: saline) 90 % of control.

`COC(=O)Nc1ccc(Cc2ccc(NC(=O)OC)cc2)cc1`: the T/C is, setting by setting: (dose: 100.0 mg/kg/injection, schedule: Q01DX010 (sc), vehicle: saline with Tween-80) 26 % of control; (dose: 200.0 mg/kg/injection, schedule: Q01DX010 (sc), vehicle: saline with Tween-80) 100 % of control; (dose: 400.0 mg/kg/injection, schedule: Q01DX010 (sc), vehicle: saline with Tween-80) 152 % of control; (dose: 800.0 mg/kg/injection, schedule: Q01DX010 (sc), vehicle: saline with Tween-80) 58 % of control.

Turning to `CC1CN1P1(N2CC2C)=NP(N2CC2C)(N2CC2C)=NP(N2CC2C)(N2CC2C)=N1` (stereo not drawn), the T/C runs as follows: under setting [3], 79 % of control; under setting [4], 101 % of control.

As for `C[C@H](N)C(=O)N[C@@H]1[C@H]2C(=C(O)C[C@@H](O)[C@@H]2O)C(=O)O[C@@H]1C`, the T/C under setting [5] was 107 % of control; the T/C under setting [6] was 81 % of control; the T/C under setting [7] was 68 % of control; the T/C (dose: 2400.0 mg/kg/injection, schedule: Q04DX004 (sc), vehicle: saline) is 92 % of control.

Consider `OCC12COCN1COC2`, for which the T/C is 88 % of control under setting [8], 76 % of control under setting [5], 94 % of control under setting [6] and 90 % of control under setting [7].

For `COc1ccc(C[C@H](N)C(=O)NC2C(CO)OC(n3cnc4c(N(C)C)ncnc43)C2O)cc1` (stereo partly drawn), the T/C (dose: 100.0 mg/kg/injection, schedule: Q04DX004 (sc), vehicle: saline) is 174 % of control; the T/C (dose: 200.0 mg/kg/injection, schedule: Q04DX004 (sc), vehicle: saline) was 96 % of control; the T/C (dose: 400.0 mg/kg/injection, schedule: Q04DX004 (sc), vehicle: saline) was 185 % of control.

As to `CC1=NN(c2cccc(S(=O)(=O)O)c2)C(=O)C1N=Nc1cc(Cl)cc(S(=O)(=O)O)c1O.CC1=NN(c2cccc(S(=O)(=O)O)c2)C(=O)C1N=Nc1cc(Cl)cc(S(=O)(=O)O)c1O.[Cr]` (stereo not drawn), the T/C under setting [8] is 94 % of control, the T/C under setting [5] was 121 % of control and the T/C under setting [6] was 61 % of control.

As for `OC1CCCC2CCCNC12` (stereo not drawn), the T/C by setting is: under setting [9], 85 % of control; under setting [10], 77 % of control; under setting [11], 83 % of control.

For `CCOC1=Cc2c(oc3c(C(C)(C)C)cc(OCC)cc23)OC(C(C)(C)C)=C1`, the T/C reads like this: under setting [9], 79 % of control; under setting [10], 87 % of control; under setting [11], 256 % of control.

As for `O=NN(CCCl)C(=O)NCCO`, where the note is “dose: 12.5 mg/kg/injection, schedule: Q04DX004 (sc), vehicle: water”, the T/C was 81 % of control.

`O.O.[NH-]C1CCCCC1[NH-].[Pt+2]` (stereo not drawn): the T/C by setting is: (dose: 10.0 mg/kg/injection, schedule: Q01DX010 (sc), vehicle: saline) 74 % of control; (dose: 20.0 mg/kg/injection, schedule: Q01DX010 (sc), vehicle: saline) 54 % of control.

In the case of `O=S(=O)(N=N/C=C1\C=CC=CN1O)c1cccs1`, the T/C under setting [11] is 75 % of control.

For `CC[C@@]1(O)C[C@H](OC2CC(N(C)C)C(OC3CC(O)C(OC4CCC(=O)C(C)O4)C(C)O3)C(C)O2)c2c(cc3c(c2O)C(=O)c2c(O)ccc(O)c2C3=O)[C@H]1C(=O)OC` (stereo partly drawn), the T/C reads like this: (dose: 3.0 mg/kg/injection, schedule: Q04DX004 (sc), vehicle: water) 12 % of control; (dose: 6.0 mg/kg/injection, schedule: Q04DX004 (sc), vehicle: water) -24 % of control.

Turning to `N#CC(=C1SCS1)[N+](=O)[O-]`, the T/C (dose: 12.0 mg/kg/injection, schedule: Q04DX004 (sc), vehicle: saline) was 22 % of control; the T/C (dose: 24.0 mg/kg/injection, schedule: Q04DX004 (sc), vehicle: saline) was 154 % of control; the T/C (dose: 48.0 mg/kg/injection, schedule: Q04DX004 (sc), vehicle: saline) was 32 % of control; the T/C (dose: 96.0 mg/kg/injection, schedule: Q04DX004 (sc), vehicle: saline) was 45 % of control.

As for `CS(=O)(=O)OCCCCOS(C)(=O)=O`, the T/C (dose: 6.25 mg/kg/injection, schedule: Q01DX010 (sc), vehicle: saline with Tween-80) is 121 % of control and the T/C (dose: 25.0 mg/kg/injection, schedule: Q01DX010 (sc), vehicle: saline with Tween-80) is 238 % of control.

For `CN=C(N)N/N=C(\C)c1ccc2c(c1)Cc1cc(/C(C)=N/NC(N)=NC)ccc1-2`, the T/C by setting is: under setting [1], 102 % of control; under setting [2], 53 % of control; (dose: 100.0 mg/kg/injection, schedule: Q04DX004 (sc), vehicle: saline with Tween-80) 105 % of control; (dose: 200.0 mg/kg/injection, schedule: Q04DX004 (sc), vehicle: saline with Tween-80) 50 % of control.

As to `CCOC(=O)Nc1cc2c(c(N)n1)N=C(c1ccc(Cl)cc1Cl)CN2`, the T/C is, setting by setting: under setting [9], 92 % of control; under setting [10], 150 % of control; under setting [11], 78 % of control; under setting [12], 83 % of control.

For `CCCCCC[C@H]([C@H](C)O)n1cnc2c(N)ncnc21`, the T/C is 26 % of control under setting [3]; 61 % of control under setting [4]; 56 % of control (dose: 200.0 mg/kg/injection, schedule: Q01DX010 (sc), vehicle: saline).

As to `CC(=O)OCC(OC(C)=O)C(Cl)CCl` (stereo not drawn), the T/C was 114 % of control (dose: 31.25 mg/kg/injection, schedule: Q04DX004 (ip), vehicle: saline); 121 % of control (dose: 62.5 mg/kg/injection, schedule: Q04DX004 (ip), vehicle: saline); 84 % of control (dose: 125.0 mg/kg/injection, schedule: Q04DX004 (ip), vehicle: saline); 100 % of control (dose: 250.0 mg/kg/injection, schedule: Q04DX004 (ip), vehicle: saline); 115 % of control (dose: 500.0 mg/kg/injection, schedule: Q04DX004 (ip), vehicle: saline).

Consider `OCC1(CO)COC2(CCCCC2)N1`, for which the T/C is 115 % of control (dose: 600.0 mg/kg/injection, schedule: Q04DX004 (sc), vehicle: suspension in saline); 56 % of control (dose: 1200.0 mg/kg/injection, schedule: Q04DX004 (sc), vehicle: suspension in saline); 109 % of control (dose: 2400.0 mg/kg/injection, schedule: Q04DX004 (sc), vehicle: suspension in saline).

In the case of `CCOC(=O)C(CC(C)C)NC(=O)C(Cc1ccc(N(CCCl)CCCl)cc1)NC(C)=O` (stereo not drawn), the T/C reads like this: (dose: 12.5 mg/kg/injection, schedule: Q01DX010 (sc), vehicle: saline with Tween-80) 66 % of control and 87 % of control; (dose: 400.0 mg/kg/injection, schedule: Q04DX004 (sc), vehicle: saline with Tween-80) 62 % of control; (dose: 800.0 mg/kg/injection, schedule: Q04DX004 (sc), vehicle: saline with Tween-80) 32 % of control; under setting [13], 29 % of control.

Turning to `CCC(=O)Sc1ccccc1C(=O)Nc1ccc(Cl)cc1`, the T/C reads like this: under setting [12], 122 % of control; (dose: 600.0 mg/kg/injection, schedule: Q04DX004 (sc), vehicle: saline with Tween-80) 93 % of control; under setting [13], 103 % of control; (dose: 2400.0 mg/kg/injection, schedule: Q04DX004 (sc), vehicle: saline with Tween-80) 91 % of control.

Turning to `C(COCCOCC1CO1)OCCOCC1CO1` (stereo not drawn), the T/C is 63 % of control under setting [8], 55 % of control under setting [5] and 43 % of control under setting [6].
